ChEMBL document CHEMBL6182949 (J Med Chem, 2025)
Values after ≈ are worked out from the molar mass of the structure shown. Active and inactive are the calls of the source. No cut-off for these calls is given here.

Columns and labels:
[1] = Metabolic stability in dog liver microsome assessed as half life at 1 uM measured up to 60 mins in presence of NADPH by LC-MS/MS analysis; assay type: ADME, Canis lupus familiaris; details: liver microsomes
[2] = Metabolic stability in mouse liver microsome assessed as half life at 1 uM measured up to 60 mins in presence of NADPH by LC-MS/MS analysis; assay type: ADME; details: liver microsomes
[3] = Metabolic stability dog hepatocyte assessed as half life at 1 uM measured up to 120 mins by LC-MS/MS analysis; assay type: ADME, cell-based, Canis lupus familiaris; details: hepatocytes
[4] = Metabolic stability rat hepatocyte assessed as half life at 1 uM measured up to 120 mins by LC-MS/MS analysis; assay type: ADME, cell-based; details: hepatocytes
[5] = Metabolic stability mouse hepatocyte assessed as half life at 1 uM measured up to 120 mins by LC-MS/MS analysis; assay type: ADME, cell-based; details: hepatocytes
[6] = Permeability across basolateral to apical side in human Caco-2 cells incubated for 120 mins by LC-MS/MS analysis; assay type: ADME, cell-based; details: read-out: permeability
[7] = Efflux ratio of permeability across basolateral to apical over apical to basolateral side in human Caco-2 cells measured up to 120 mins by LC-MS/MS analysis; assay type: ADME, cell-based
[8] = Kinetic solubility of compound in PBS buffer at pH 7.4 incubated for 2 hr by LC-MS analysis; assay type: physicochemical; details: read-out: Kinetic_solubility
[9] = Kinetic solubility of compound in FaSSIF at pH 6.5 incubated for 2 hr by LC-MS analysis; assay type: physicochemical; details: read-out: Kinetic_solubility
[10] = Cmax in male C57BL/6 mouse at 2 mg/kg, iv measured up to 24 hrs by LC-MS/MS analysis; assay type: ADME, organism-based; details: in vivo
[11] = AUClast in male C57BL/6 mouse at 2 mg/kg, iv measured up to 24 hrs by LC-MS/MS analysis; assay type: ADME, organism-based; details: in vivo
[12] = Half life in male C57BL/6 mouse at 2 mg/kg, iv measured up to 24 hrs by LC-MS/MS analysis; assay type: ADME, organism-based; details: in vivo
[13] = Volume of distribution at steady state in male C57BL/6 mouse at 2 mg/kg, iv measured up to 24 hrs by LC-MS/MS analysis; assay type: ADME, organism-based; details: in vivo, read-out: Vdss
[14] = Tmax in male C57BL/6 mouse at 10 mg/kg, po measured up to 24 hrs by LC-MS/MS analysis; assay type: ADME, organism-based; details: in vivo
[15] = Cmax in Beagle dog at 2 mg/kg, iv measured up to 24 hrs by LC-MS/MS analysis; assay type: ADME, organism-based, Canis lupus familiaris; details: in vivo
[16] = Volume of distribution at steady state in Beagle dog at 2 mg/kg, iv measured up to 24 hrs by LC-MS/MS analysis; assay type: ADME, organism-based, Canis lupus familiaris; details: in vivo
[17] = Half life in Beagle dog at 10 mg/kg, po measured up to 24 hrs by LC-MS/MS analysis; assay type: ADME, organism-based, Canis lupus familiaris; details: in vivo
[18] = AUClast in cynomolgus monkey at 1 mg/kg, iv measured up to 24 hrs by LC-MS/MS analysis; assay type: ADME, organism-based, Macaca fascicularis; details: in vivo
[19] = Volume of distribution at steady state in cynomolgus monkey at 1 mg/kg, iv measured up to 24 hrs by LC-MS/MS analysis; assay type: ADME, organism-based, Macaca fascicularis; details: in vivo, read-out: Vdss
[20] = Oral bioavailability in cynomolgus monkey at 20 mg/kg measured up to 24 hrs by LC-MS/MS analysis; assay type: ADME, organism-based, Macaca fascicularis; details: in vivo
[21] = target: Protein cereblon/Interleukin-1 receptor-associated kinase 4 (Homo sapiens, UniProt Q9NWZ3+Q96SW2); assay: PROTAC activity at CRBN/IRAK4 in human PBMC cells assessed as induction of IRAK4 degradation incubated for 24 hrs by HiBiT lytic reagent based analysis relative to control; assay type: cell-based
Sequence of Protein cereblon/Interleukin-1 receptor-associated kinase 4 (Homo sapiens, UniProt Q9NWZ3+Q96SW2) (Q96SW2 whole entry, looked up): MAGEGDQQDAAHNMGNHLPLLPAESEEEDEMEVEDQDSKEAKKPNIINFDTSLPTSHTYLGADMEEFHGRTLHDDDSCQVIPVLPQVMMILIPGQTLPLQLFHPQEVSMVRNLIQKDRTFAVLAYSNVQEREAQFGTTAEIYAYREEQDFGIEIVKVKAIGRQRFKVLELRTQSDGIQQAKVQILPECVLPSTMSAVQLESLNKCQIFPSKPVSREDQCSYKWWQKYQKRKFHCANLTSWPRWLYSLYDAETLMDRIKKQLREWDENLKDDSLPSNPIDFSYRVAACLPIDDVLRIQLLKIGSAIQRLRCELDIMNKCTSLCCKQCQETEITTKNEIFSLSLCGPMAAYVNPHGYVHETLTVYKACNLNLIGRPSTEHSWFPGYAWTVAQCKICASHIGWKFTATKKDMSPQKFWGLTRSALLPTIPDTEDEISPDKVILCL
Sequence of Protein cereblon/Interleukin-1 receptor-associated kinase 4 (Homo sapiens, UniProt Q9NWZ3+Q96SW2) (Q9NWZ3 whole entry, looked up): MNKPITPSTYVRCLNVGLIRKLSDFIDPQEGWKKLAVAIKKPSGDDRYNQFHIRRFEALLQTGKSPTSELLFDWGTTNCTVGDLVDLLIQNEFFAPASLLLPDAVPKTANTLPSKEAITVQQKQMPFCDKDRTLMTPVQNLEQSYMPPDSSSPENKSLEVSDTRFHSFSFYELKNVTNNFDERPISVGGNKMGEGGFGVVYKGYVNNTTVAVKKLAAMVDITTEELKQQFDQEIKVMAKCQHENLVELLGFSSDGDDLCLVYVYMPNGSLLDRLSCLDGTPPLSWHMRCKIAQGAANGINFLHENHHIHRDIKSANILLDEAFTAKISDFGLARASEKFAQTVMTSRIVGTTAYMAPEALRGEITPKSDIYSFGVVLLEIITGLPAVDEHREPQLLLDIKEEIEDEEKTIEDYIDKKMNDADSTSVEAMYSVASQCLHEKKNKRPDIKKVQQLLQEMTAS

[22] = target: T1, Protein cereblon/Interleukin-1 receptor-associated kinase 4 (Mus musculus, UniProt Q8C7D2+Q8R4K2); assay: PROTAC activity at CRBN/IRAK4 in mouse PBMC cells assessed as induction of IRAK4 degradation incubated for 24 hrs by HiBiT lytic reagent based analysis; assay type: cell-based
T1 sequence (Q8C7D2 whole entry): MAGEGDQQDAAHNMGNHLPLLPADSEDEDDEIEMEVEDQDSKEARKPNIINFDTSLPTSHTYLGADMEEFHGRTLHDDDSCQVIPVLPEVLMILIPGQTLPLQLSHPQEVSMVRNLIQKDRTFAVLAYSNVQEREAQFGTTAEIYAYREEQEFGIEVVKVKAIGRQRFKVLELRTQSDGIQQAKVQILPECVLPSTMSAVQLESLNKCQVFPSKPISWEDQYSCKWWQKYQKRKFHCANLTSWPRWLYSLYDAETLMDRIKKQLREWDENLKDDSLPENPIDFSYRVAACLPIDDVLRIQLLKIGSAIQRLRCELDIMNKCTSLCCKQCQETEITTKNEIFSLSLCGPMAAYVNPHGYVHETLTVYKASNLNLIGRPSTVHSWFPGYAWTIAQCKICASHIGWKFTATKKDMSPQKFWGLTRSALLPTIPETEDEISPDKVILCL
T1 sequence (Q8R4K2 whole entry): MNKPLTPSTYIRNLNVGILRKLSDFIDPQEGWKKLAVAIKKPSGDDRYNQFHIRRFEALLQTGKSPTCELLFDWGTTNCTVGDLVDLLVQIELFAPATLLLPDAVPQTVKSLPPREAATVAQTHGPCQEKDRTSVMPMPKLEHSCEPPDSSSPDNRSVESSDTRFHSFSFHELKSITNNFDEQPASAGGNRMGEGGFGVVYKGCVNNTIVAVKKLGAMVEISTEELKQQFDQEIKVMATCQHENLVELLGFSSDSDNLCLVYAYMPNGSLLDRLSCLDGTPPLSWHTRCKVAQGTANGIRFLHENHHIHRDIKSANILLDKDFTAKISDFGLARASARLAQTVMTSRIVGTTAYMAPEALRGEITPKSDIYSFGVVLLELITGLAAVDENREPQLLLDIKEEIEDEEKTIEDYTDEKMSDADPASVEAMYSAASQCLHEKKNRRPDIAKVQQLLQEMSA

[23] = target: Protein cereblon/Zinc finger protein Aiolos (Homo sapiens) (UniProt Q96SW2+Q9UKT9); assay: PROTAC activity at CRBN/IKZF3 in human PBMC cells assessed as induction of SALL4 degradation at 1 uM by Western blot analysis; assay type: cell-based
Sequence of Protein cereblon/Zinc finger protein Aiolos (Homo sapiens) (Q96SW2 whole entry, looked up): as the sequence (Q96SW2 whole entry, looked up) above
Sequence of Protein cereblon/Zinc finger protein Aiolos (Homo sapiens) (Q9UKT9 whole entry, looked up): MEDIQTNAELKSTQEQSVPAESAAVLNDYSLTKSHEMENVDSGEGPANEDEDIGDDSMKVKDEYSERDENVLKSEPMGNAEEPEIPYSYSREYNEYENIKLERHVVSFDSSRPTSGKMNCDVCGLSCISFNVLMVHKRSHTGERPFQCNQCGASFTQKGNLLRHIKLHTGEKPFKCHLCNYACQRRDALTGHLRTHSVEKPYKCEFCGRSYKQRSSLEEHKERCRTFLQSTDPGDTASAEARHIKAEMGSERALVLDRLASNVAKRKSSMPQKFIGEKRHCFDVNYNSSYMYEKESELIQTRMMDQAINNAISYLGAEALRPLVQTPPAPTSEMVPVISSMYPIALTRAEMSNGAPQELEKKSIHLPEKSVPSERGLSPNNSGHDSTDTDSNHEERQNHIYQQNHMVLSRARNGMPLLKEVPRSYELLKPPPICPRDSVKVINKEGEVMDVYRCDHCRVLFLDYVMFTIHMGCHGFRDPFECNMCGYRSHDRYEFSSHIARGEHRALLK

[24] = test system: Mus musculus; assay: Anti-psoriasis effect in IMQ-induced C57BL/6 mouse assessed as reduction in ear thickness at 100 mg/kg administered topically twice daily for 6 days and measured after 24 hrs; assay type: functional, organism-based; details: time 7.0 day
[25] = test system: Mus musculus; assay: Anti-psoriasis effect in IMQ-induced C57BL/6 mouse assessed as reduction in spleen weight at 100 mg/kg administered topically twice daily for 6 days and measured after 24 hrs; assay type: functional, organism-based; details: time 7.0 day
[26] = target: T2, Protein cereblon/Interleukin-1 receptor-associated kinase 4 (Mus musculus) (UniProt Q8C7D2+Q8R4K2); assay: In-vivo PROTAC activity at C57BL/6 mouse assessed as reduction in IRAK4 level in spleen at 30 mg/kg, po measured after 24 hrs by Western blot analysis; assay type: functional, organism-based; design: scale not given: the % may be the effect or the level left
[27] = target: T2, Protein cereblon/Interleukin-1 receptor-associated kinase 4 (Mus musculus); assay: In-vivo PROTAC activity at C57BL/6 mouse assessed as reduction in IRAK4 level in spleen at 10 mg/kg, po measured after 24 hrs by Western blot analysis; assay type: functional, organism-based; design: scale not given: the % may be the effect or the level left

## Cn1c(=O)n(C2CCC(=O)NC2=O)c2cccc(C#CCO[C@H]3CC[C@H](CN4CCC5(CC4)Cc4cc(NC(=O)c6coc7cccnc67)c(N6CCC(CO)CC6)cc4O5)CC3)c21 (some centres not stated)
[1]
  half-life at 1 µM: > 3.07 h
[2]
  half-life at 1 µM: 1.52 h
[3]
  half-life at 1 µM: > 6.18 h
[4]
  half-life at 1 µM: 2.65 h
[5]
  half-life at 1 µM: 3.42 h
[6]
  Papp B→A at 2 h: 2 nm/s
[7]
  efflux ratio at 2 h: 2.22
[8]
  solubility kinetic at 2 h: 0.97 µg/mL (≈ 1.11 µM)
[9]
  solubility kinetic at 2 h: 13.3 µg/mL (≈ 15.3 µM)
[10]
  Cmax: 1.87 µg/mL
[11]
  AUC(0-t) at 24 h: 10.6 µg·h/mL
[12]
  half-life: 3.12 h
[13]
  Vd: 0.88 L/kg
[14]
  Tmax: 2.67 h
[15]
  Cmax: 0.599 µg/mL
[16]
  Vdss: 73 L/kg
[17]
  half-life: 10.6 h
[18]
  AUC(0-t) at 24 h: 1.82 µg·h/mL
[19]
  Vd: 3.85 L/kg
[20]
  bioavailability: 11%
[21]
  Emax: 94%
[22]
  DC50: 3.57 nM
[23]
  Activity: inactive
[24]
  Activity: Active
[25]
  Activity: Active
[26]
  Activity: > 80%
[27]
  Activity: 74%
